Measurements: US20260070899A1, “N-(2-(4-CYANOTHIAZOLIDIN-3-YL)-2-OXOETHYL)-QUINOLINE-4-CARBOXAMIDES” (AstraZeneca AB, priority 2022, published 2026)
pIC50: −log10 of the molar value.

Experiments:
[1] = molecular target: T1, human dipeptidylpeptidase 7 (hDPP7) (Homo sapiens, UniProt Q9UHL4); experiment: hDPP7 inhibition assay; assay type: biochemical; conditions: hDPP7 15 nM, Ala-Pro-amino-methylcoumarin 5 μM; n = 1
T1 construct: purchased BPS Bioscience 80070
Method: Compounds were tested in a biochemical inhibition assay using human dipeptidylpeptidase 7 (hDPP7) enzyme at 15 nM FAC (BPS Bioscience, #80070) and the substrate Ala-Pro-amino-methylcoumarin (BPS Bioscience, #80305) at 5 μM FAC. The enzymatic reactions were conducted in duplicate at rt for 30 min in 50 μL DPP assay buffer (BPS Bioscience, #80300). Compound solutions (in DMSO) at 10 CR, 3 fold dilution series were prepared in assay buffer ten-fold higher than the final concentration, and 5 μL of the dilution was added to a 50 μL reaction so that the highest compound concentration was 100 μM FAC and the concentration of DMSO was 1% in all wells. The plates were read on a Tecan Infinite M1000 microplate reader with excitation 340 nm and emission 460 nm. Data were analyzed in Graph Pad Prism. […] Raw data signals were normalized using 1% DMSO as 0% control and no enzyme as 100% inhibitor control.

[2] = molecular target: T2, human dipeptidylpeptidase 8 (hDPP8) (Homo sapiens, UniProt Q6V1X1); experiment: hDPP8 inhibition assay; assay type: biochemical; conditions: hDPP8 1.5 nM, Ala-Pro-amino-methylcoumarin 5 μM; n = 1
T2 construct: purchased BPS Bioscience 80080
T2 sequence (Q6V1X1 whole entry): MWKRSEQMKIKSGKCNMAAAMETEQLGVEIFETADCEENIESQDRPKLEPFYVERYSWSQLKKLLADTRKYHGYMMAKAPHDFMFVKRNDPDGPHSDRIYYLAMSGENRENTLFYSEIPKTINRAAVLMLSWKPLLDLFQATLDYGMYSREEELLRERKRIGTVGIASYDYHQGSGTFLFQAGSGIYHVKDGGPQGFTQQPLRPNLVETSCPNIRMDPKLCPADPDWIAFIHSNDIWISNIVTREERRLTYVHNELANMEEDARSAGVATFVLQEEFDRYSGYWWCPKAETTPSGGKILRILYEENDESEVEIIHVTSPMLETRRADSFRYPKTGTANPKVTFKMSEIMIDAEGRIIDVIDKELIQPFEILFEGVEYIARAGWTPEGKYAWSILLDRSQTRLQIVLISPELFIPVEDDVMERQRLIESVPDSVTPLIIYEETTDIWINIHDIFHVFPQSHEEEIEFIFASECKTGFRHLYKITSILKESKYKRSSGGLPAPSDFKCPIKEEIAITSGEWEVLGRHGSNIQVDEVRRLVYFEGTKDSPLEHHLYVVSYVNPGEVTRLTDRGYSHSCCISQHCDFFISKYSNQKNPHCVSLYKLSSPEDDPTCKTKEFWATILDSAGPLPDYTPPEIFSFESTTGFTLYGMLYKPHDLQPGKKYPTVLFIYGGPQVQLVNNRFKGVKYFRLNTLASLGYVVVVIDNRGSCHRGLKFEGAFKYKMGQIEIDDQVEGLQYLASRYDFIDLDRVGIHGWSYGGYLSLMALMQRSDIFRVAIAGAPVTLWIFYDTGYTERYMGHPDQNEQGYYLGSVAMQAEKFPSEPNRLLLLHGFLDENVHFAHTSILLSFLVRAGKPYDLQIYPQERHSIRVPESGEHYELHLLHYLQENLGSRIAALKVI
Method: (§1) Compounds were tested in a biochemical inhibition assay using human dipeptidylpeptidase 8 (hDPP8) enzyme at 1.5 nM FAC (BPS Bioscience, #80080) and the substrate Ala-Pro-amino-methylcoumarin (BPS Bioscience #80305) at 5 μM FAC. The enzymatic reactions were conducted in duplicate at rt for 30 min in 50 μL DPP assay buffer (BPS Bioscience, #80300). Compound solutions (in DMSO) at 10 CR, 3 fold dilution series were prepared in assay buffer ten-fold higher than the final concentration, and 5 μL of the dilution was added to a 50 μL reaction so that the highest compound concentration was 100 μM FAC and the concentration of DMSO was 1% in all wells. The plates were read on a Tecan Infinite M1000 microplate reader with excitation 340 nm and emission 460 nm. Data were analyzed in Graph Pad Prism. […] Raw data signals were normalized using 1% DMSO as 0% control and no enzyme as 100% inhibitor control.

[3] = molecular target: T3, human dipeptidylpeptidase 9 (hDPP9) (Homo sapiens, UniProt Q86TI2); experiment: hDPP9 inhibition assay; assay type: biochemical; conditions: hDPP9 0.4 nM, Ala-Pro-amino-methylcoumarin 5 μM; n = 1
T3 construct: purchased BPS Bioscience 80090
T3 sequence (Q86TI2 whole entry): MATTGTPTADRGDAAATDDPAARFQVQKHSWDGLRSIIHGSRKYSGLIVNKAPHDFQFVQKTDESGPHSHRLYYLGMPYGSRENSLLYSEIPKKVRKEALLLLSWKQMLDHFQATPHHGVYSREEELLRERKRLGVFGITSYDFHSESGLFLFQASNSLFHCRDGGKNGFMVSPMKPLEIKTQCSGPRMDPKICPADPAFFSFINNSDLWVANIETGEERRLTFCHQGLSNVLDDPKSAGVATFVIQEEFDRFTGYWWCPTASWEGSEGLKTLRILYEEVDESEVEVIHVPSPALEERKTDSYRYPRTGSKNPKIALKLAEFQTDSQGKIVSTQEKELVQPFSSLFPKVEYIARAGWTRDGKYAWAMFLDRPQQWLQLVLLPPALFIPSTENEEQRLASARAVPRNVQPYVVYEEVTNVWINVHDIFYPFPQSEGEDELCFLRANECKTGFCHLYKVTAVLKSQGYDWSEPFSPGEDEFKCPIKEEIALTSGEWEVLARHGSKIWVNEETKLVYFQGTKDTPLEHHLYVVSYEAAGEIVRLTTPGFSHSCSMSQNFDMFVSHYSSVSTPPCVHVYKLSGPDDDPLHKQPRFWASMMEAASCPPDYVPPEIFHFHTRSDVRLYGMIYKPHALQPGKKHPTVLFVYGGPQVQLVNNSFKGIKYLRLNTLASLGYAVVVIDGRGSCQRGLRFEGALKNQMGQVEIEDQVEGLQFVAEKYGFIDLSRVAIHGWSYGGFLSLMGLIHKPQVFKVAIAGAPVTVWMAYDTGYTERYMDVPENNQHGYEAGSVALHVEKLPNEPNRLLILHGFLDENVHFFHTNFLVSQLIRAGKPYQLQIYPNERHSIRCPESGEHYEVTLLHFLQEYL
Method: as §1, with “9 (hDPP9)” for “8 (hDPP8)”, “0.4” for “1.5”, “#80090)” for “#80080)”

[4] = test system: Rat Hepatocytes (rHep); experiment: Metabolic stability in rat hepatocytes (rHep); assay type: in vitro ADME; conditions: n = 1 or geometric mean (n = 2-3)
Method: Metabolic stability in rat hepatocytes was measured as described in J Comput Aided Mol Des 2015, 29, 795.

Row | pIC50 [1] | pIC50 [2] | pIC50 [3] | rHeps CLint [4] [μL/min/1E6] | SMILES
1 | < 4.00 | 5.19 | 5.72 | – | CC(C)(F)COc1ccc2nccc(C(=O)NCC(=O)N3CSC[C@H]3C#N)c2c1 [Example 3, (R)—N-(2-(4-Cyanothiazolidin-3-yl)-2-oxoethyl)-6-(2-fluoro-2-methylpropoxy)quinoline-4-carboxamide]
2 | – | – | – | 26 | COC(C)(C)c1ccc2nccc(C(=O)NCC(=O)N3CSC[C@H]3C#N)c2c1 [Example 18, (R)—N-(2-(4-Cyanothiazolidin-3-yl)-2-oxoethyl)-6-(2-methoxypropan-2-yl)quinoline-4-carboxamide]
